The kinase profiling compilation of Christmann-Franck et al. (2016)
Where “and” joins values, the source holds several entries; their conditions need not be identical. Identical values can stand only once.

How the values were obtained:
Experiment in all cases: radiometric filter-binding kinase assay, Kinase HotSpot
Conditions in all cases: compound 0.5 µM; ATP 10 µM
[1] = molecular target: ACVRL1 (human) (UniProt P37023)
[2] = molecular target: AKT1 (human) (UniProt P31749)
[3] = molecular target: ALK (human) (UniProt Q9UM73)
[4] = molecular target: BLK (human) (UniProt P51451)
[5] = molecular target: BRSK1 (human) (UniProt Q8TDC3)
[6] = molecular target: BRSK2 (human) (UniProt Q8IWQ3)
[7] = molecular target: CDC42BPA (human) (UniProt Q5VT25)
[8] = molecular target: CDK3 CCNE1 (human) (UniProt Q00526+P24864)
[9] = molecular target: CDK6 CCND3 (human) (UniProt P30281+Q00534)
[10] = molecular target: CSNK1A1 (human) (UniProt P48729)
Sequence of CSNK1A1 (human) (P48729 whole entry, looked up): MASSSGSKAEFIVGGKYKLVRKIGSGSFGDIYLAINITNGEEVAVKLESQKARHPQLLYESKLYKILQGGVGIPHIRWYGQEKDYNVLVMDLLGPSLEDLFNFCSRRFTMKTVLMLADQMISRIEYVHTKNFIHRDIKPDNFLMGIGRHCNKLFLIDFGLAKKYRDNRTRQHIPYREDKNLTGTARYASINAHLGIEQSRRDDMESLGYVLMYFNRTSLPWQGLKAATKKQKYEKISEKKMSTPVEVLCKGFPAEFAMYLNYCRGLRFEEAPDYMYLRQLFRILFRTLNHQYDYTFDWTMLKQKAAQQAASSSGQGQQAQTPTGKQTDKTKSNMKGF

[11] = molecular target: DDR2 (human) (UniProt Q16832)
[12] = molecular target: DYRK1A (human) (UniProt Q13627)
[13] = molecular target: EPHA1 (human) (UniProt P21709)
[14] = molecular target: EPHB2 (human) (UniProt P29323)
[15] = molecular target: EPHB3 (human) (UniProt P54753)
[16] = molecular target: FGFR4 (human) (UniProt P22455)
Sequence of FGFR4 (human) (P22455 whole entry, looked up): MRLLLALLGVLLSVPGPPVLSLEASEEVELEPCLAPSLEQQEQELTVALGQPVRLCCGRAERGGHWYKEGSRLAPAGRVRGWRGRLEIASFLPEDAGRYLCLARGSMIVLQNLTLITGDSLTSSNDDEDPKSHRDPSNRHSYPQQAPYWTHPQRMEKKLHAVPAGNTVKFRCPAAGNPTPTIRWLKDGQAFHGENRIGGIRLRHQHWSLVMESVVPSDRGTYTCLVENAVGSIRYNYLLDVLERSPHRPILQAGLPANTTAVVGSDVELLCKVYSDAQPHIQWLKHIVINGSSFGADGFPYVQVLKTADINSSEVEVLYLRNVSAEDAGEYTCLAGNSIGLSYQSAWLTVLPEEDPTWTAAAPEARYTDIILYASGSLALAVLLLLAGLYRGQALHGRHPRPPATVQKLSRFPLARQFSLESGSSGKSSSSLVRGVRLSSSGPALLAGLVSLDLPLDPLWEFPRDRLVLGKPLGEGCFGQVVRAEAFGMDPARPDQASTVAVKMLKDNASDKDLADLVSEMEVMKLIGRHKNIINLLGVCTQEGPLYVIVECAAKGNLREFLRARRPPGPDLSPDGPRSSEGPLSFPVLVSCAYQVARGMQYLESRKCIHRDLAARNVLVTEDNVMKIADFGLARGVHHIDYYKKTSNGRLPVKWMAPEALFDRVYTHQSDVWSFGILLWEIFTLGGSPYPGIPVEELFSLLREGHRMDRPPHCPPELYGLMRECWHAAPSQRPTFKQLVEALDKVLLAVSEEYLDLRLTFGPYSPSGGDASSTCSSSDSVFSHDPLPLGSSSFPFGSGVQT

[17] = molecular target: FYN (human) (UniProt P06241)
[18] = molecular target: GSK3B (human) (UniProt P49841)
[19] = molecular target: IRAK1 (human) (UniProt P51617)
[20] = molecular target: LRRK2 (human) (UniProt Q5S007)
[21] = molecular target: LTK (human) (UniProt P29376)
[22] = molecular target: LYN (human) (UniProt P07948)
Sequence of LYN (human) (P07948 whole entry, looked up): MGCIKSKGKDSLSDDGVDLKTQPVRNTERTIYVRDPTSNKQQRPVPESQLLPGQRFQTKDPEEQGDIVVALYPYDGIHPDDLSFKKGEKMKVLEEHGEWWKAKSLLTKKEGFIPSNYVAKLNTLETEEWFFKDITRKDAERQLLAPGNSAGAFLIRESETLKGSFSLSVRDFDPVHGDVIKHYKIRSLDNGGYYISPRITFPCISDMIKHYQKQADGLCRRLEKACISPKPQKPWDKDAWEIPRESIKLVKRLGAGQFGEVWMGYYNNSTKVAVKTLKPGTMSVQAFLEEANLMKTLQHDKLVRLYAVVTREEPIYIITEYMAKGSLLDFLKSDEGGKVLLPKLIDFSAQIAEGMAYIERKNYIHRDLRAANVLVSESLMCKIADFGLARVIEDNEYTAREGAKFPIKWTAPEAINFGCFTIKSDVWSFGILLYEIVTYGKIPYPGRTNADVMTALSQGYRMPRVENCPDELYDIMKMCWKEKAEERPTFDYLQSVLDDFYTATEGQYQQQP

[23] = molecular target: MAP2K2 (human) (UniProt P36507)
[24] = molecular target: MAP3K10 (human) (UniProt Q02779)
[25] = molecular target: MAP3K11 (human) (UniProt Q16584)
[26] = molecular target: MAP4K4 (human) (UniProt O95819)
[27] = molecular target: MAPK14 (human) (UniProt Q16539)
[28] = molecular target: MAPKAPK5 (human) (UniProt Q8IW41)
[29] = molecular target: MARK4 (human) (UniProt Q96L34)
[30] = molecular target: NEK1 (human) (UniProt Q96PY6)
Sequence of NEK1 (human) (Q96PY6 whole entry, looked up): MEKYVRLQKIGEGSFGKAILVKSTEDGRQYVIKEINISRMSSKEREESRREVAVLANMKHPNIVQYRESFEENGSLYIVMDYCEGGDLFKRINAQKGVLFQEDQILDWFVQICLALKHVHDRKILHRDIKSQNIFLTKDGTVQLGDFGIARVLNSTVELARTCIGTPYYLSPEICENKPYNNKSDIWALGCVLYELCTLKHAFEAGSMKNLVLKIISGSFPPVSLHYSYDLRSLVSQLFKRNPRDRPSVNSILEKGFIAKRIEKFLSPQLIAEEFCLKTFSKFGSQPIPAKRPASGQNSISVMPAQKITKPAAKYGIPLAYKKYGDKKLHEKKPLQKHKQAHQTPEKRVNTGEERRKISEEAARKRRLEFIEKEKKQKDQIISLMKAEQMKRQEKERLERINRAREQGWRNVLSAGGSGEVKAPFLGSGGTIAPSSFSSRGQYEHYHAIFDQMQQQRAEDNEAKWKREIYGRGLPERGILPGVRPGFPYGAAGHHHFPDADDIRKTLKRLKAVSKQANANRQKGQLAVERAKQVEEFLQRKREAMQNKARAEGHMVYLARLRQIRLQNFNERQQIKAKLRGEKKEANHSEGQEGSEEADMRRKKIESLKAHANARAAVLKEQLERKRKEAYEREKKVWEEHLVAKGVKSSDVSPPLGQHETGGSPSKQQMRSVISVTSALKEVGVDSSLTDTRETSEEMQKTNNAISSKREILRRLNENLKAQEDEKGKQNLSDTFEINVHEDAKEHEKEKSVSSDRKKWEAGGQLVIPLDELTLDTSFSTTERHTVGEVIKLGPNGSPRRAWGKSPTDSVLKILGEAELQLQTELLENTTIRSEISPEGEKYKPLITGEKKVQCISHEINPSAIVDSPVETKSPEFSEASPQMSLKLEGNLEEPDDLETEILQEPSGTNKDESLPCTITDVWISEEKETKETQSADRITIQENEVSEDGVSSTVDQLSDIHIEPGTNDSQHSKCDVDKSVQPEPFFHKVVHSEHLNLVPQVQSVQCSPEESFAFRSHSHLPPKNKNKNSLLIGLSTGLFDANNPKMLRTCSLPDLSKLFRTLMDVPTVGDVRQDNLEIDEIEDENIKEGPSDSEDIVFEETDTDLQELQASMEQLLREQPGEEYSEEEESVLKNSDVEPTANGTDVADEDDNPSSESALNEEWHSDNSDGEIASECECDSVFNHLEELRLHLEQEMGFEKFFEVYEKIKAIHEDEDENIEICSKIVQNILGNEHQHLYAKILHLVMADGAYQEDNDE

[31] = molecular target: NTRK1 (human) (UniProt P04629)
Sequence of NTRK1 (human) (P04629 whole entry, looked up): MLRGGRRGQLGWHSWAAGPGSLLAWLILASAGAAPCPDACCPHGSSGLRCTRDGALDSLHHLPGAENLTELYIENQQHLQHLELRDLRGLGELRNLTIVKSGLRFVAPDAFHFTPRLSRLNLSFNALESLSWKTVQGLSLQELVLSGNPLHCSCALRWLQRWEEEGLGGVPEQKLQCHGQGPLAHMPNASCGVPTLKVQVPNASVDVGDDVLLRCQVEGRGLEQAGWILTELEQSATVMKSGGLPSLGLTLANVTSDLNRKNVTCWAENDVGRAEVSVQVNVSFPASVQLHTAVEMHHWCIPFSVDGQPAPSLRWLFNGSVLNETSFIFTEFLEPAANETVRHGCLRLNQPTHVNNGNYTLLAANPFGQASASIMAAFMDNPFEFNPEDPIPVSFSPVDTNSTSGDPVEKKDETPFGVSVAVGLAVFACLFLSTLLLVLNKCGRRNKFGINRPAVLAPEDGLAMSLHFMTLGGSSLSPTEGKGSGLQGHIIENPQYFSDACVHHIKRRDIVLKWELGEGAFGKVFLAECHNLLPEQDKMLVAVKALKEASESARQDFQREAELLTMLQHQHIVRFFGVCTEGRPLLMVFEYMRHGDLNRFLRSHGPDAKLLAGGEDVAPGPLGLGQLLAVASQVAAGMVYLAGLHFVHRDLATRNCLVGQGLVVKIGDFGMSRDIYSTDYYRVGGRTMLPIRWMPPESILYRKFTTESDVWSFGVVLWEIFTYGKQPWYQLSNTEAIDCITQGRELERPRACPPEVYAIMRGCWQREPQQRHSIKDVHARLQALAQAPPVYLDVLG

[32] = molecular target: PASK (human) (UniProt Q96RG2)
[33] = molecular target: PDGFRA (human) (UniProt P16234)
[34] = molecular target: PDPK1 (human) (UniProt O15530)
[35] = molecular target: PIM1 (human) (UniProt P11309)
[36] = molecular target: PKN1 (human) (UniProt Q16512)
[37] = molecular target: PRKD3 (human) (UniProt O94806)
[38] = molecular target: PRKG2 (human) (UniProt Q13237)
[39] = molecular target: RPS6KA5 KD2 (human) (UniProt O75582)
Sequence of RPS6KA5 KD2 (human) (O75582 whole entry, looked up): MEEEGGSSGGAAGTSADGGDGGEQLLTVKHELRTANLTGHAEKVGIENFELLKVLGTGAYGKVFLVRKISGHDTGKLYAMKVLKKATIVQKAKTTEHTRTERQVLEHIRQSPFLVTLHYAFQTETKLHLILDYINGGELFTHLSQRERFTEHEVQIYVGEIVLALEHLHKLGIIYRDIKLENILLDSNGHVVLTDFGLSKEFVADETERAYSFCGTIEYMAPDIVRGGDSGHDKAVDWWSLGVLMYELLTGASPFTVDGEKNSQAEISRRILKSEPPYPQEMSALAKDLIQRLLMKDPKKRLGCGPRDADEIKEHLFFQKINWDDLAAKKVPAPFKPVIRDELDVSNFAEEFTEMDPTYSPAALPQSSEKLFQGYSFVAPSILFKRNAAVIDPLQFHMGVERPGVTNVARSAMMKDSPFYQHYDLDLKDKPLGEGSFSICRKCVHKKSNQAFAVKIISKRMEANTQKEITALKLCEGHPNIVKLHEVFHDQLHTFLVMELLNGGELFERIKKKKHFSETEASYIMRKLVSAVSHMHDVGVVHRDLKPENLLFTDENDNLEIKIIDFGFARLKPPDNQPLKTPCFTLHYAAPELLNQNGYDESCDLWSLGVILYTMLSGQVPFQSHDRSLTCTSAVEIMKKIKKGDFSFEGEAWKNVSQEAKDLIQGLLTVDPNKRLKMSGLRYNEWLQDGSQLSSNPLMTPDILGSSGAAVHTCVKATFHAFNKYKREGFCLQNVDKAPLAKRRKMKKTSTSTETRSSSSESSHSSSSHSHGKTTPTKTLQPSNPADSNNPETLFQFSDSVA

[40] = molecular target: RPS6KB1 (human) (UniProt P23443)
[41] = molecular target: STK3 (human) (UniProt Q13188)
[42] = molecular target: WNK3 (human) (UniProt Q9BYP7)

Sequence of ACVRL1 (human) (P37023 whole entry, looked up): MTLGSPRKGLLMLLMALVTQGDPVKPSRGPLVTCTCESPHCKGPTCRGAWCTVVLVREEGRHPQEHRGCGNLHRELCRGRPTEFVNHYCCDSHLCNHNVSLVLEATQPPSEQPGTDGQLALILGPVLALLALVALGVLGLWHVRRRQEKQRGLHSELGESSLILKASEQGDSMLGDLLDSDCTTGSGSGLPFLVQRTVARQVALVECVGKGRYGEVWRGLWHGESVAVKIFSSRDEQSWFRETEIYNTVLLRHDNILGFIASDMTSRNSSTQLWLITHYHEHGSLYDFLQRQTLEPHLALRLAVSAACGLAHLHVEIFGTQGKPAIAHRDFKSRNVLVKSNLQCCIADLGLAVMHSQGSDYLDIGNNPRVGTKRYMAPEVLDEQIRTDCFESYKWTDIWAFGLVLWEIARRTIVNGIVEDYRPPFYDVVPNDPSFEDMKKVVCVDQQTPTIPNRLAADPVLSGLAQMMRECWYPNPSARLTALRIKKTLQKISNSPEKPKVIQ

SMILES: O=C1Nc2ccccc2/C1=C1\Nc2ccccc2\C1=N/O
- residual activity [1]: 108%
- residual activity [2]: 97.8%
- residual activity [3]: 76.5%
- residual activity [4]: 75.1%
- residual activity [5]: 23.4%
- residual activity [6]: 28%
- residual activity [7]: 93.7%
- residual activity [8]: 52.3%
- residual activity [9]: 26.1%
- residual activity [10]: 48.2%
- residual activity [11]: 101%
- residual activity [12]: 105%
- residual activity [13]: 99.4%
- residual activity [14]: 83.3%
- residual activity [15]: 92.3%
- residual activity [16]: 91.9%
- residual activity [17]: 43.3%
- residual activity [18]: 27.3%
- residual activity [19]: 68.8%
- residual activity [20]: 91.6%
- residual activity [21]: 62.3%
- residual activity [22]: 64.6% and 79.6%
- residual activity [23]: 100%
- residual activity [24]: 95.2%
- residual activity [25]: 17.3%
- residual activity [26]: 42%
- residual activity [27]: 97.2%
- residual activity [28]: 101%
- residual activity [29]: 56.2%
- residual activity [30]: 96.9%
- residual activity [31]: 12.4%
- residual activity [32]: 94.1%
- residual activity [33]: 90.9%
- residual activity [34]: 93%
- residual activity [35]: 85.2%
- residual activity [36]: 87.5%
- residual activity [37]: 88.4%
- residual activity [38]: 67.3%
- residual activity [39]: 67%
- residual activity [40]: 75.9%
- residual activity [41]: 19.9%
- residual activity [42]: 89.4%
